These results are taken from patent publication US11021498B2 (Acorda Therapeutics, Inc., priority 2008, dated 2021).

Molecules are shown by their SMILES. ≈ marks a conversion by molar mass, not a printed value. Read-outs that look alike come from different tables or passages of the source.

By solubility is commonly meant the concentration that dissolves in the medium under given conditions.

For data set [1] the following is noted: background and U.S. Pat. No. 4,322,410; cited from earlier work.
Data set [2] has as its system alkaline phosphatase. The conditions noted are these: requires alkaline phosphatase; cited from earlier work.
A short description of data set [3]: Solubility of acetaminophen prodrugs in water. Format: physicochemical.
Data set [4] has as its system myocytes. To be noted: guinea pigs, low-flow global myocardial ischemia 30 minutes, then 60 minutes of reperfusion; cited from earlier work.
The conditions of data set [5]: Goodman and Gillman's; cited from earlier work.
Data set [6] concerns rat hippocampus. The conditions noted are these: rat hippocampus insulted with quinolinic acid; cited from earlier work.
The conditions of data set [7]: cited from earlier work.
[8] abbreviates: water, room temperature, read-out: solubility in water at room temperature.
Where [9] appears, read: Anesthesia and Analgesia 101, 90-96, 2005.
Setting [10] is: British Journal of Anaesthesia 94 (5): 642-648, 2005.

As for `CC(=O)Nc1ccc(OP(=O)(O)O)cc1` [4-acetamidophenyl dihydrogen phosphate], the water solubility in data set [1] was 50 g per 100 mL. Besides, the “time in vitro to yield acetaminophen from the derivative” value in data set [2] is “about 15 hours”.
Take `CC(=O)Nc1ccc(OCOP(=O)(O)O)cc1` [(4-acetamidophenoxy)methyl dihydrogen phosphate]: the solubility in data set [3] (setting [8]) is about 145 mg/mL; in data set [3] (water, solvent water, read-out: Solubility) it was 145 mg/mL.
For `CC(=O)Nc1ccc(O)cc1` [Acetaminophen, N-(4-hydroxyphenyl)acetamide], the water solubility result in data set [1] is given as “about 1.3 g per 100 mL”. In data set [4], the apoptosis in myocytes result was “decrease apoptosis in myocytes”. Moreover, the solubility in data set [3] (setting [8]) was about 13 mg/mL (≈ 86 mM). Also, the half-life result in data set [5] is reported as “about 2 hours”. For the same compound, in data set [6], the “lipid peroxidation and superoxide anion generation” value is “inhibit both lipid peroxidation and superoxide anion generation”. Further, the results for the local tolerance profile in data set [7] (setting [9]) and in data set [7] (setting [10]) were 0% and 52%, respectively.
`CCN(CC)CC(=O)Oc1ccc(NC(C)=O)cc1` [Propacetamol, 4-acetamidophenyl 2-(diethylamino)acetate]: the local tolerance profile was 49% in data set [7] (setting [9]) and 90% in data set [7] (setting [10]).
Regarding `CC(=O)Nc1ccc(OCOP(=O)(O)O)cc1` [Sodium (4-acetamidophenoxy)methyl phosphate], in data set [3] (solvent water, phosphate), the solubility is listed as 160 mg/mL. Also, the “solubility in water at room temperature” value in data set [3] (water, room temperature, phosphate) is recorded as about 160 mg/mL.
